Assay results from patent US20030103993A1, “HLA-DR2 binding peptides” (Corixa Corporation, priority 2000, published 2003).

Experiments:
[1] = test system: SS8T cloned human T cells; test: T cell receptor occupancy assay: γ-IFN production by SS8T T cell clone (ELISA); type: cell-based; settings: SS8T cells restricted to HLA-DR2 and MBP 84-102; 48 h incubation; text cites FIG. 2
Protocol: The Herpes saimiri virus (HSV) transformed SS8T human T cell clone was a generous gift from Dr. H. Wekerle. The clone is restricted to DR2 (DRB5*0101) and MBP (84-102) peptide. It was cultured in RPMI 1640 medium supplemented with 2 mM L-glutamine, 100 units/ml penicillin, 100 μg/ml streptomycin, 10% fetal bovine serum and 50 units/ml human recombinant IL-2 (rIL-2) at 37° C. (culture medium). Every alternate day, cells were transferred to fresh culture medium. Various peptides at different concentrations were incubated with the cells in a microtiter tissue culture plate at a density of 20,000 cells/200 μl/well in the absence of rIL-2. After 48 h of incubation at 37° C., the culture fluids were collected from each well to test for γ-IFN and TNF-β cytokines. The detection of γ-IFN was by Ab ELISA as described recently (Arimilli et a.l, J. Immunol. Methods 212:49-59 (1998)). For the detection of TNF-β, Nunc Maxisorb 96-well plates were coated with anti-human TNF-β mAb at a concentration of 0.5 μg/well and incubated at 4° C. overnight. The wells were blocked with 0.1% bovine serum albumin, and samples were incubated at RT for 2 h. A standard curve was generated by using recombinant human TNF-β with a dilution range of 500 to 0.01 ng/ml. […] The reaction was stopped by 2N sulfuric acid at 5 mm, and the absorbance was measured at 450 nm.

SS8T cells = test: T cell metabolic acidification rate (Cytosensor microphysiometer); type: cell-based, human
Description: Freshly cultured SS8T cells were immobilized into microphysiometer cell capsules as described earlier (Arimilli et al., J. Immunol. Methods 212:49-59 (1998)) using low-melt agarose (Molecular Devices Corp., Sunnyvale, Calif.). Briefly, cells were rested from IL-2 pulsing for 2 days. Cells were counted and suspended in a serum-free loading medium (low-buffering RPMI 1640 containing 10% fatty acid free, endotoxin-free BSA). Cells were collected by centrifugation and resuspended at a concentration of 3×10^5 T cells per 7.5 μl of loading medium. Low-melt agarose (Molecular Devices Corp.), melted and stored at 37° C., was added to the suspended cells to a concentration of 2.5 μl per 7.5 μl. Ten μl of the agarose/cell mixture was immediately spotted into the center of the cell capsule cups (Molecular Devices Corp.) held in a 12 well culture plate. After 5 minutes, 2 ml of loading medium was placed in the capsule cup over the solidified agarose and a membrane insert was placed over the cells. The assembled cell capsule was loaded in the Cytosensor chamber at 37° C. and perfused at 50 μl per min with low-buffering RPMI 1640 medium containing […] but no added HEPES or bicarbonate. […]

HLA-DR2 = biological target: T1, HLA-DR2 (Homo sapiens, UniProt P01903+Q30154); test: Peptide/DR2 competitive binding assay (biotinylated MBP 83-102Y83 vs test peptide, ELISA)
T1 construct: DR2 molecules were purified from the human EBV-B cell line; endogenous in cells; host or cells: human EBV-B cell line
Protocol: DR2 molecules were purified from the human EBV-B cell line. […] Mab L243 (IgG2a) affinity chromatography. A 10 μM solution of affinity purified DR2 was biotinylated with 200 μM Biotin-XX-NHS in 0.25 NaHCO3/0.2% NP-40 for 1 hr. at room temperature.
The ability of peptides to bind HLA-DR2 was estimated by competitive peptide binding assay. Purified HLA-DR2 (2 μg/ml) was incubated with 50-fold excess Bt-MBP 83-102Y83 peptide in the presence or absence of test peptides. The ratio of Et-MEP 831-2Y83 peptide to the test peptide was 1:1. After incubation at 37° C. for 48 hrs, the complex was added to the wells coated with anti-DR antibody and incubated for 2 hours at 37° C. The wells were then washed and alkaline phosphatase-linked streptavidin was added and the reaction incubated for 1 hour at 37° C. The excess streptavidin was washed and the ELISA color was developed by using p-nitrophenol phosphate in 0.1M diethanolamine as substrate. The test peptide was considered to be the stronger binding peptide if the O.D was less than the O.D of Bt 83-102Y83 peptide in the absence of the test peptide.

Row | Substance | γ-IFN production by SS8T cells exposed to peptide [1] | stimulation of SS8T cells (extracellular acidification rate) (SS8T cells; SS8T cells immobilized in agarose, exposed to peptide, FIG. 3) | inhibition of the binding of biotinylated MBP 83-102 to DR2 (HLA-DR2; purified DR2, 50-fold molar excess biotinylated MBP 83-102Y83, increasing concentrations of test peptide, FIG. 1) | affinity of binding to DR2 relative to MBP peptide (HLA-DR2; synthesized peptide, compared with MBP 84-102 peptide) | activation of the MBP 83-102 specific T cells in the presence of increasing concentrations of test peptide (SS8T cells; competition with MBP peptide, increasing concentrations)
1 | Ac-YDENPVVHEKMVTPRTPP (Ac-YDENPVVHEKMVTPRTPP-NH2) [MBP 83-102 peptide, myelin basic protein peptide 83-102 with Y at position 83] | specific increase in γ-IFN production | increased level of extracellular acidification rate within 10 minutes | – | – | –
2 | Ac-GFGYGGRASDYKSAHKGFKG (Ac-GFGYGGRASDYKSAHKGFKG-NH2) [MBP 124-143 peptide, myelin basic protein peptide 124-143, control] | did not show any increase in γ-IFN production | – | – | – | –
3 | GHIKSSISFMGM [peptide #1] | – | – | to the same extent as the unbiotinylated MBP 83-102 peptide | comparatively in the same range as that of the MBP 83-102 peptide | decreasing activation of the hybridomas in a competitive manner
